Results on 30 compounds are retold here after patent publication US10865191B2, “Heterocyclic compounds useful as modulators of TNF alpha” (BRISTOL-MYERS SQUIBB COMPANY, priority 2015, dated 2020).

The target in this test is TNFα (Homo sapiens, UniProt P01375). Kind of test: TNF induced HEK-Blue assay (NF-kB-driven secreted alkaline phosphatase reporter). The class given is cell-based. The conditions noted are these: TNFα 0.5 ng/mL, HEK-Blue-CD40L cells, 18 h. The method, boiled down:
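HEK-Blue-CD40L cells (NF-kB-driven SEAP reporter), 20,000/well, added after 30 min pre-incubation of compound (0.004–25 μM final) with TNFα 0.5 ng/mL final at 37 °C; 18 h incubation. SEAP read with QUANTI-Blue at 620 nm; IC50 from 4-parameter logistic fit, normalized to unstimulated and stimulated DMSO controls.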

The mark [1] stands for this setting: read-out: TNF induced HEK-Blue assay IC50 value.
Where [2] appears, read: TNF induced HEK-Blue assay IC50 value.

pIC50: −log10 of the molar value. Where two headings read alike, the source gives them in different places.

Sequence of TNFα (P01375 77-233 limits assumed): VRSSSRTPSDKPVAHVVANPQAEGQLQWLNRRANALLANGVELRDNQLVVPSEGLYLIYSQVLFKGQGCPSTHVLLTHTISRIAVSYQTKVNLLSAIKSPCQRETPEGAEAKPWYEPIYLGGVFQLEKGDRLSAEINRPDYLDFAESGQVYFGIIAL

For `CC(=O)NC[C@@H](C(=O)O)N1CCN(c2ncc(-c3ccc4ncc(Cl)c(N[C@H](C)c5ccccc5F)c4c3)cn2)CC1` [Example 95, (S)-3-acetamido-2-(4-(5-(3-chloro-4-(((R)-1-(2-fluorophenyl)ethyl)amino)quinolin-6-yl)pyrimidin-2-yl)piperazin-1-yl)propanoic acid], the negative-log IC50 (pIC50) under setting [1] is 5.00 to 6.00.

As for `CC(Cc1cccc2[nH]ccc12)Nc1c(Cl)cnc2ccc(-c3cnc(C(C)(C)O)nc3)cc12` (racemic) [Example 144, 2-(5-(4-((1-(1H-indol-4-yl)propan-2-yl)amino)-3-chloroquinolin-6-yl)pyrimidin-2-yl)propan-2-ol], under setting [1], the negative logarithm of the IC50 (pIC50) is 5.00 to 6.00.

For `Cc1ccc(C)c(Nc2c(F)c(C)nc3ccc(-c4cnc(C(C)(C)O)nc4)cc23)c1` [Example 183, 2-(5-(4-((2,5-dimethylphenyl)amino)-3-fluoro-2-methylquinolin-6-yl)pyrimidin-2-yl)propan-2-ol], the pIC50 under setting [1] is more than 6.00.

The compound `C[C@@H](Nc1c(Cl)cnc2ccc(-c3cnc(C(C)(C)O)nc3)cc12)c1cc(C#N)ccc1F` [Example 376, (R)-3-(1-((3-chloro-6-(2-(2-hydroxypropan-2-yl)pyrimidin-5-yl)quinolin-4-yl)amino)ethyl)-4-fluorobenzonitrile] had a negative logarithm of the IC50 (pIC50) under setting [2] of more than 6.00.

Regarding `CCC(Nc1c(Cl)cnc2ccc(-c3cnc(C(C)(C)O)nc3)cc12)c1ccccn1` (racemic) [Example 52, 2-(5-(3-chloro-4-((1-(pyridin-2-yl)propyl)amino)quinolin-6-yl)pyrimidin-2-yl)propan-2-ol], the negative logarithm of the IC50 (pIC50) under setting [1] is more than 6.00.

As for `C[C@@H](Nc1c(Cl)cnc2ccccc12)c1cc(CCCO)ccc1F` [Example 464, (R)-3-(3-(1-((3-chloroquinolin-4-yl)amino)ethyl)-4-fluorophenyl)propan-1-ol], the pIC50 under setting [1] is 5.00 to 6.00.

Regarding `C[C@@H](Nc1c(Cl)cnc2ccc(-c3cnc(C(C)(C)O)nc3)cc12)c1cc(-c2c[nH]nn2)ccc1F` [Example 419, (R)-2-(5-(3-chloro-4-((1-(2-fluoro-5-(1H-1,2,3-triazol-4-yl)phenyl)ethyl)amino)quinolin-6-yl)pyrimidin-2-yl)propan-2-ol], the negative-log IC50 (pIC50) under setting [1] is more than 6.00.

With `CC(C)(O)c1ncc(-c2nc3c(N[C@H](c4cc(CO)ccc4F)C(F)F)c(Cl)cnc3cc2F)cn1` [Example 486, (R)-2-(5-(7-chloro-8-((2,2-difluoro-1-(2-fluoro-5-(hydroxymethyl)phenyl)ethyl)amino)-3-fluoro-1,5-naphthyridin-2-yl)pyrimidin-2-yl)propan-2-ol], under setting [1], the negative-log IC50 (pIC50) was more than 6.00.

For `CC(C)(O)c1ncc(-c2cc(F)c3ncc(Cl)c(N[C@@H](c4ccccc4F)C(F)F)c3c2)cn1` [Example 297, (S)-2-(5-(3-chloro-4-((2,2-difluoro-1-(2-fluorophenyl)ethyl)amino)-8-fluoroquinolin-6-yl)pyrimidin-2-yl)propan-2-ol], the pIC50 under setting [1] was more than 6.00.

In the case of `CC(=O)NC1(c2ccc(-c3ccc4ncc(Cl)c(N[C@H](C)c5ccccc5F)c4c3)cc2)CCC1` [Example 113, (R)—N-(1-(4-(3-chloro-4-((1-(2-fluorophenyl)ethyl)amino)quinolin-6-yl)phenyl)cyclobutyl)acetamide], the negative-log IC50 (pIC50) under setting [1] was 4.60 to 5.00.

As for `Cc1nc2ccc(-c3cnc(C(C)(C)O)nc3)cc2c(N[C@H](C)c2cc(C(N)=O)ccc2F)c1C` [Example 315, (R)-4-fluoro-3-(1-((6-(2-(2-hydroxypropan-2-yl)pyrimidin-5-yl)-2,3-dimethylquinolin-4-yl)amino)ethyl)benzamide], the negative-log IC50 (pIC50) under setting [1] was 4.60 to 5.00.

For the compound `C[C@@H](Nc1c(Cl)cnc2cc(F)c(-c3cnc(C(C)(C)O)nc3)nc12)c1cccc(C#N)c1` [Example 588, (R)-3-(1-((3-chloro-7-fluoro-6-(2-(2-hydroxypropan-2-yl)pyrimidin-5-yl)-1,5-naphthyridin-4-yl)amino)ethyl)benzonitrile], the pIC50 under setting [1] is more than 6.00.

`CC(Nc1c(Cl)cnc2ccc(-c3cnc(C(C)(C)O)nc3)cc12)[C@H]1CCCN(C(=O)OC(C)(C)C)C1` (mixture of isomers) [Example 60, (S)-tert-butyl 3-(1-((3-chloro-6-(2-(2-hydroxypropan-2-yl)pyrimidin-5-yl)quinolin-4-yl)amino)ethyl)piperidine-1-carboxylate]: the pIC50 under setting [1] was 5.00 to 6.00.

Take `CC(Nc1c(Cl)cnc2ccc(-c3ccc(C(C)(C)O)cc3)cc12)c1cncn1C` (racemic) [Example 210, 2-(4-(3-chloro-4-((1-(1-methyl-1H-imidazol-5-yl)ethyl)amino)quinolin-6-yl)phenyl)propan-2-ol]: the negative-log IC50 (pIC50) under setting [1] was more than 6.00.

`C[C@@H](Nc1c(Cl)cnc2ccc(-c3cnc(C(C)(C)O)nc3)cc12)c1ccccc1F` [Example 217, (R)-2-(5-(3-chloro-4-(1-(2-fluorophenyl)ethylamino)quinolin-6-yl)pyrimidin-2-yl)propan-2-ol] had a pIC50 under setting [2] of more than 6.00.

`Cc1ccnc(C(C)Nc2c(Cl)cnc3ccc(-c4ccc(C(C)(C)O)cc4)cc23)n1` (racemic) [Example 178, 2-(4-(3-chloro-4-((1-(4-methylpyrimidin-2-yl)ethyl)amino)quinolin-6-yl)phenyl)propan-2-ol]: the pIC50 under setting [1] is more than 6.00.

In the case of `C[C@@H](Nc1c(Cl)cnc2ccc(-c3cnc(C(C)(C)O)nc3)cc12)c1cc(-n2cnnc2)ccc1F` [Example 371, (R)-2-(5-(3-chloro-4-((1-(2-fluoro-5-(4H-1,2,4-triazol-4-yl)phenyl)ethyl)amino)quinolin-6-yl)pyrimidin-2-yl)propan-2-ol], under setting [1], the pIC50 was more than 6.00.

Regarding `C[C@@H](Nc1c(Cl)cnc2ccc(Br)cc12)c1cc(-c2cncnc2)ccc1F` [Example 532, (R)-6-bromo-3-chloro-N-(1-(2-fluoro-5-(pyrimidin-5-yl)phenyl)ethyl)quinolin-4-amine], under setting [1], the pIC50 is more than 6.00.

`CC(Nc1c(Cl)cnc2ccc(-c3cnc(C(C)(C)O)nc3)cc12)[C@@H]1CCCNC1` (mixture of isomers) [Example 98, (R)-2-(5-(3-chloro-4-((1-(piperidin-3-yl)ethyl)amino)quinolin-6-yl)pyrimidin-2-yl)propan-2-ol]: the pIC50 under setting [1] was 4.60 to 5.00.

For the compound `Cc1ccc(F)c(C(C)Nc2c(Cl)cnc3ccc(-c4cnc(N5CCNC(=O)C5)nc4)cc23)n1` (stereo not drawn) [Example 484, 4-(5-(3-chloro-4-((1-(3-fluoro-6-methylpyridin-2-yl)ethyl)amino)quinolin-6-yl)pyrimidin-2-yl)piperazin-2-one], the negative-log IC50 (pIC50) under setting [1] is more than 6.00.

With `COc1nc2ccc(-c3cnc(C(C)(C)O)nc3)cc2c(Nc2cc(C)ccc2C)c1C` [Example 180, 2-(5-(4-(2,5-dimethylphenylamino)-2-methoxy-3-methylquinolin-6-yl)pyrimidin-2-yl)propan-2-ol], the negative-log IC50 (pIC50) under setting [1] was 4.60 to 5.00.

As to `CC(Nc1c(Cl)cnc2ccc(-c3cnc(C(C)(C)O)nc3)cc12)[C@@H]1CCCN(C(=O)OC(C)(C)C)C1` (mixture of isomers) [Example 61, tert-butyl (R)-3-((R)-1-((3-chloro-6-(2-(2-hydroxypropan-2-yl)pyrimidin-5-yl)quinolin-4-yl)amino)ethyl)piperidine-1-carboxylate], the negative logarithm of the IC50 (pIC50) under setting [1] was 5.00 to 6.00.

In the case of `COC(=O)c1ccc(F)c([C@@H](C)Nc2c(Cl)cnc3ccc(-c4cnc(C(C)(C)O)nc4)cc23)c1` [Example 415, Methyl (R)-3-(1-((3-chloro-6-(2-(2-hydroxypropan-2-yl)pyrimidin-5-yl)quinolin-4-yl)amino)ethyl)-4-fluorobenzoate], under setting [1], the pIC50 is more than 6.00.

On to `Cc1ncc(-c2ccc(F)c([C@@H](C)Nc3c(Cl)cnc4ccccc34)c2)cn1` [Example 535, (R)-3-chloro-N-(1-(2-fluoro-5-(2-methylpyrimidin-5-yl)phenyl)ethyl)quinolin-4-amine], for which, under setting [1], the pIC50 was more than 6.00.

On to `CNC(=O)c1ccc(-c2ccc3nc(C)c(F)c(Nc4cc(C)ccc4C)c3c2)cn1` [Example 186, 5-(4-((2,5-dimethylphenyl)amino)-3-fluoro-2-methylquinolin-6-yl)-N-methylpicolinamide], for which the negative logarithm of the IC50 (pIC50) under setting [1] was 4.60 to 5.00.

For `Cc1nc2cc(F)c(-c3cnc(C(C)(C)O)nc3)nc2c(N[C@@H](c2cc(C(O)CO)ccc2F)C(F)F)c1Cl` (stereo partly drawn) [Example 491, 1-(3-((S)-1-((3-chloro-7-fluoro-6-(2-(2-hydroxypropan-2-yl)pyrimidin-5-yl)-2-methyl-1,5-naphthyridin-4-yl)amino)-2,2-difluoroethyl)-4-fluorophenyl)ethane-1,2-diol], under setting [1], the negative-log IC50 (pIC50) was more than 6.00.

Take `CNS(=O)(=O)c1ccc(-c2cc(Cl)c3ncc(Cl)c(NC(C)c4ccccc4F)c3c2)cc1` (racemic) [Example 22, 4-(3,8-dichloro-4-((1-(2-fluorophenyl)ethyl)amino)quinolin-6-yl)-N-methylbenzenesulfonamide]: under setting [1], the pIC50 was 4.60 to 5.00.

Regarding `CC(Nc1c(Cl)cnc2cc(F)c(-c3cnc(C(C)(C)O)nc3)cc12)c1ccccc1F` (single isomer, unassigned) [Example 241, 2-(5-(3-chloro-7-fluoro-4-((1-(2-fluorophenyl)ethyl)amino)quinolin-6-yl)pyrimidin-2-yl)propan-2-ol], the pIC50 under setting [2] is more than 6.00.

`C[C@@H](Nc1c(Cl)cnc2ccc(-c3cnc(N4CCS(=O)(=O)CC4)nc3)cc12)c1ccccc1F` [Example 225, (R)-4-(5-(3-chloro-4-((1-(2-fluorophenyl)ethyl)amino)quinolin-6-yl)pyrimidin-2-yl)thiomorpholine 1,1-dioxide] showed a pIC50 under setting [2] of more than 6.00.

As to `Cc1nc2c(F)cc(-c3cnc(C(C)(C)O)nc3)cc2c(NC(C)c2ccc(F)cc2)c1Cl` (racemic) [Example 301, 2-(5-(3-chloro-8-fluoro-4-((1-(4-fluorophenyl)ethyl)amino)-2-methylquinolin-6-yl)pyrimidin-2-yl)propan-2-ol], the negative-log IC50 (pIC50) under setting [1] is 4.60 to 5.00.

By pIC50 is commonly meant the negative decadic logarithm of the IC50, by convention in mol/L.
